Source: publication PMC10634346 (Cancer Research Communications, 2023)

Legend:
[1] = tested on: p-Ser5 RNA polymerase II in SU-DHL-10 tumors; experiment: Pharmacodynamics in SU-DHL-10 xenograft tumors, p-Ser5; assay type: in vivo, C.B-17 SCID mice; settings: single dose, all doses (5, 10, 15 mg/kg)
Experimental: (§1) The levels of p-Ser2, p-Ser5 and total RNA polymerase II, Myc, Mcl-1, cleaved PARP (cPARP), and cleaved Caspase 3 were assessed by Western blotting and quantified near-infrared detection and background corrected quantification of fluorescence intensity on an Odyssey Imaging System with IRDye secondary antibodies (LI-COR Biosciences). For quantification, the protein levels were normalized to GAPDH or HSP90, expressed as a ratio to DMSO or vehicle control at matched timepoints. The normalized relative protein levels of p-Ser2 were used for a treatment effect comparison by performing an ANOVA using PROC MIXED in SAS. The ANOVA model included treatment, timepoints and their interactions as fixed effects. The least square means (LSM), differences between the LSMs and associated P values were generated. The following primary antibodies were used: Rpb1 NTD (D8L4Y) rabbit antibody [Cell Signaling Technology (CST), #14958], anti-RNA polymerase II subunit B1 (phospho CTD Ser-2, clone 3E10) rat antibody (Merck, 04-1571-I), recombinant anti-c-MYC rabbit antibody (Y69; Abcam, #ab32072), MCL1 (D5V5L) rabbit antibody (CST, #39224), cleaved-PARP (Asp214) (E2T4K) mouse antibody (CST, #32563), HSP90 (C45G5) rabbit antibody (CST, #4877), and GAPDH mouse antibody (Zytomed Systems, #ZYT-RGM2-6C5). […]

[2] = tested on: Mcl-1 protein in SU-DHL-10 tumors; experiment: Pharmacodynamics in SU-DHL-10 xenograft tumors, Mcl-1 protein; assay type: in vivo, C.B-17 SCID mice; settings: single dose; within 4 to 8 hours postdose
Experimental: as §1

[3] = Body weight of treated xenograft mice; assay type: in vivo, C.B-17 SCID mice; settings: 15 mg/kg i.v. once weekly
Experimental: (§2) A total of 10 × 10^6 SU-DHL-10 cells were inoculated subcutaneously into 6–8 weeks old female C.B-17 SCID mice (Iffa Credo, Brussels). The mice were randomized to treatment groups at a tumor volume of 63–104 mm^3 and treated (intravenously, once weekly) with 10 mg/kg enitociclib (60% PEG400, 10% ethanol, water), 15 mg/kg enitociclib (30% PEG400, 10% ethanol, water), or corresponding vehicle treatments. Mice were around 10–12 weeks of age at the start of study. All animal experiments were performed under the national animal welfare laws of Germany and approved by the local authorities.

[4] = tested on: MYC mRNA in SU-DHL-10 tumors; experiment: Pharmacodynamics in SU-DHL-10 xenograft tumors, MYC mRNA qPCR; assay type: in vivo, C.B-17 SCID mice; settings: single dose 10 and 15 mg/kg
Experimental: Total RNA was extracted from blood of patients and cell lines using RNeasy Plus Mini Kit (QIAGEN, #74136) and cDNA prepared with the Maxima First Strand cDNA Synthesis Kit for RT-PCR (Thermo Fisher Scientific, K1642) according to manufacturer's instructions. The integrity of purified total RNA was evaluated using an Agilent 2100 Bioanalyzer system and RNA 6000 Nano Kit (Agilent, #5067-1511). Differential gene expression analysis was performed (Fios Genomics) from RNA-seq data (Discovery Life Sciences). MYC and MCL1 mRNA levels were measured by qPCR in vitro and in vivo, using a Taqman qPCR system (Thermo Fisher Scientific), TaqMan Fast Universal PCR Master Mix (2X) no AmpErase (#4352042) and TaqMan probes for MYC (Hs00153408_m1) and MCL1 (Hs03043899_m1). RNA-seq data were analyzed using DESeq2 ([35]).
as §2

[5] = Fraction unbound (fu) used for patient unbound Cmax; assay type: in vitro ADME; settings: human, plasma; patients

COc1cc(F)ccc1-c1cc(Nc2cc(CS(C)(=N)=O)ccn2)ncc1F (centres unmarked) [enitociclib]
p-Ser5 reductions in tumors (in words) [1]: not robust | Mcl-1 protein levels in tumors (in words) [2]: robustly decreased | maximum body weight change [3]: −12.5% | MYC mRNA in tumors (in words) [4]: depleted by 4 hours postdose | fraction unbound [5]: 0.0665
